Here are results for 28 compounds from patent publication US10544150B2, “NK-3 receptor selective antagonist compounds, pharmaceutical composition and methods for use in NK-3 receptors mediated disorders” (Ogeda SA, priority 2010, dated 2020).

The experiment deals with human NK-3 receptor (Homo sapiens (Human), UniProt P29371). The experiment can be described thus: 3H-SB222200 binding competition assay with human NK-3 receptor. The following applies: 3H-SB222200 displacement, CHO cell membranes expressing human NK3 receptor; read-out: Ki range. The protocol:
The affinity of compounds of the invention for the tachykinin receptors was determined by measuring the ability of the compounds of the invention to displace a radiolabeled ligand from its specifics binding site.
^3H-SB222200 Binding Competition Assay with Human NK-3 Receptor
The ability of the compounds of the invention to inhibit the binding of the NK-3 receptor selective antagonist SB222200 was assessed by an in vitro radioligand binding assay. Membranes were prepared from Chinese hamster ovary recombinant cells which express the human NK3 receptor. The membranes were incubated with 5 nM ^3H-SB222200_(ARC) in a HEPES 25 mM/NaCl 0.1M/CaCl2 1 mM/MgCl2 5 Mm/BSA 0.5%/Saponin 10 μg/ml buffer at pH 7.4 and various concentrations of the compounds of the invention. The amount of tritiated SB222200 bound to the receptor was determined after filtration by the quantification of membrane associated radioactivity using the TopCount-NXT reader (Packard). […] In Table 3 biological results obtained using the ^3H-SB222200 binding competition assay with compounds of the invention are set out in tabulated form. In this table the calculated Ki is given. The Ki value obtained (in accordance with the protocol set forth above) is represented as follows: “+++” means Ki<500 nM; “++” means 500 nM≤Ki≤1 μM; “+” means 1 μM<Ki≤5 μM; “#” means Ki>5 μM.

human NK-3 receptor, sequence (P29371 whole entry): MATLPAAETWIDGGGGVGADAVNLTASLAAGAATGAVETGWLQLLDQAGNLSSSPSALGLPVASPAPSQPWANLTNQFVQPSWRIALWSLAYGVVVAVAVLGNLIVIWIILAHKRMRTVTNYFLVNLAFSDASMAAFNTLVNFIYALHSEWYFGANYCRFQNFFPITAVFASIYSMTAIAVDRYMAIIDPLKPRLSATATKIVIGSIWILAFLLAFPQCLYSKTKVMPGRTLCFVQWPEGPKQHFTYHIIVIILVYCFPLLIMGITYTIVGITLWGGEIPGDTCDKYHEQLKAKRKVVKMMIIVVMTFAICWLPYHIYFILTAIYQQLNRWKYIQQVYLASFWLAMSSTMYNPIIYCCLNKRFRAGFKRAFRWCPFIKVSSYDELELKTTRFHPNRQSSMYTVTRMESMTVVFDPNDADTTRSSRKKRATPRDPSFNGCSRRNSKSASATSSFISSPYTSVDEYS

What is called Ki is the equilibrium dissociation constant of an inhibitor or competing ligand from its target. Regarding `O=C(c1ccc(-c2cccs2)cc1)N1CCn2c(nnc2-c2csc(N3CCC(F)(F)CC3)n2)C1` [Compound 263, (3-(2-(4,4-difluoropiperidin-1-yl)thiazol-4-yl)-5,6-dihydro-[1,2,4]triazolo[4,3-a]pyrazin-7(8H)-yl)(4-(thiophen-2-yl)phenyl)methanone], the Ki is under 500 nM.
Under `Cc1ccc(C(=O)N2CCn3c(nnc3-c3ccccn3)C2)cc1` [Compound 232, (3-(pyridin-2-yl)-5,6-dihydro-[1,2,4]triazolo[4,3-a]pyrazin-7(8H)-yl)(p-tolyl)methanone] stands 1000 to 5000 nM; under `C[C@H]1c2nnc(-c3nc(-c4ccc(F)cc4)no3)n2CCN1C(=O)c1ccc(-c2cccs2)cc1` [Compound 168, (S)-(3-(3-(4-fluorophenyl)-1,2,4-oxadiazol-5-yl)-8-methyl-5,6-dihydro-[1,2,4]triazolo[4,3-a]pyrazin-7(8H)-yl)(4-(thiophen-2-yl)phenyl)methanone], under 500 nM.
The value for `O=C(c1ccc(-c2cccs2)cc1)N1CCn2c(nnc2-c2ccc3ccccc3n2)C1` [Compound 69, (3-(quinolin-2-yl)-5,6-dihydro-[1,2,4]triazolo[4,3-a]pyrazin-7(8H)-yl)(4-(thiophen-2-yl)phenyl)methanone] was under 500 nM; that for `O=C(c1ccc(-c2cccs2)cc1)N1CCn2c(nnc2-c2csc(-c3cnccn3)n2)C1` [Compound 235, (3-(2-(pyrazin-2-yl)thiazol-4-yl)-5,6-dihydro-[1,2,4]triazolo[4,3-a]pyrazin-7(8H)-yl)(4-(thiophen-2-yl)phenyl)methanone] was under 500 nM.
Consider `O=C(c1ccc(-c2cccs2)cc1)N1CCn2c(nnc2-c2csc(-c3ccncc3)n2)C1` [Compound 228, (3-(2-(pyridin-4-yl)thiazol-4-yl)-5,6-dihydro-[1,2,4]triazolo[4,3-a]pyrazin-7(8H)-yl)(4-(thiophen-2-yl)phenyl)methanone], for which the Ki was under 500 nM.
Take `O=C(c1ccc(F)cc1)N1CCn2c(nnc2-c2ccc3cccc(F)c3n2)C1` [Compound 22, (4-fluorophenyl)(3-(8-fluoroquinolin-2-yl)-5,6-dihydro-[1,2,4]triazolo[4,3-a]pyrazin-7(8H)-yl)methanone]: the Ki lay in the range of 500 to 1000 nM.
Consider `O=C(c1ccc(-c2cccs2)cc1)N1CCn2c(nnc2-c2n[nH]c(-c3ccccc3)n2)C1` [Compound 179, (3-(5-phenyl-1H-1,2,4-triazol-3-yl)-5,6-dihydro-[1,2,4]triazolo[4,3-a]pyrazin-7(8H)-yl)(4-(thiophen-2-yl)phenyl)methanone], for which the Ki was under 500 nM.
As to `O=C(c1ccc(-c2cccs2)cc1)N1CCn2c(nnc2-c2csc(-c3cccc(F)c3)n2)C1` [Compound 207, (3-(2-(3-fluorophenyl)thiazol-4-yl)-5,6-dihydro-[1,2,4]triazolo[4,3-a]pyrazin-7(8H)-yl)(4-(thiophen-2-yl)phenyl)methanone], the Ki was under 500 nM.
Regarding `O=C(c1ccc(-c2ccccc2)cc1)N1CCn2c(nnc2-c2csc(-c3cccs3)n2)C1` [Compound 195, [1,1′-biphenyl]-4-yl(3-(2-(thiophen-2-yl)thiazol-4-yl)-5,6-dihydro-[1,2,4]triazolo[4,3-a]pyrazin-7(8H)-yl)methanone], the Ki is under 500 nM.
The value for `CC1c2nnc(-c3csc(-c4ccc(F)cc4)n3)n2CCN1C(=O)c1ccc(C#N)cc1` (stereo not shown) [Compound 216, 4-(3-(2-(4-fluorophenyl)thiazol-4-yl)-8-methyl-5,6,7,8-tetrahydro-[1,2,4]triazolo[4,3-a]pyrazine-7-carbonyl)benzonitrile] was under 500 nM.
The value for `CC1c2nnc(-c3csc(-c4ccc(F)cc4)n3)n2CCN1C(=O)c1ccc(-c2cccs2)cc1` (stereo not shown) [Compound 78, (3-(2-(4-fluorophenyl)thiazol-4-yl)-8-methyl-5,6-dihydro-[1,2,4]triazolo[4,3-a]pyrazin-7(8H)-yl)(4-(thiophen-2-yl)phenyl)methanone] was under 500 nM; that for `COCC1CCCCN1c1nc(-c2nnc3n2CCN(C(=O)c2ccc(-c4cccs4)cc2)C3)cs1` (stereo not shown) [Compound 279, (3-(2-(2-(methoxymethyl)piperidin-1-yl)thiazol-4-yl)-5,6-dihydro-[1,2,4]triazolo[4,3-a]pyrazin-7(8H)-yl)(4-(thiophen-2-yl)phenyl)methanone] was under 500 nM; that for `O=C(c1ccc(-c2cccs2)cc1)N1CCn2c(nnc2-c2csc(-c3ccc(F)cc3)n2)C1` [Compound 73, (3-(2-(4-fluorophenyl)thiazol-4-yl)-5,6-dihydro-[1,2,4]triazolo[4,3-a]pyrazin-7(8H)-yl)(4-(thiophen-2-yl)phenyl)methanone] was under 500 nM.
As for `O=C(c1ccc(-c2ccccc2)cc1)N1CCn2c(nnc2-c2csc(Cn3cnc(Cl)c3Cl)n2)C1` [Compound 186, [1,1′-biphenyl]-4-yl(3-(2-((4,5-dichloro-1H-imidazol-1-yl)methyl)thiazol-4-yl)-5,6-dihydro-[1,2,4]triazolo[4,3-a]pyrazin-7(8H)-yl)methanone], the inhibitory constant (Ki) fell in the range of 1000 to 5000 nM.
Regarding `O=C(c1ccc(-c2ccccc2)cc1)N1CCn2c(nnc2-c2ccc3ccccc3n2)C1` [Compound 19, [1,1′-biphenyl]-4-yl(3-(quinolin-2-yl)-5,6-dihydro-[1,2,4]triazolo[4,3-a]pyrazin-7(8H)-yl)methanone], the Ki was under 500 nM.
The value for `CC1(C)CN(c2nc(-c3nnc4n3CCN(C(=O)c3ccc(-c5cccs5)cc3)C4)cs2)CCO1` [Compound 266, (3-(2-(2,2-dimethylmorpholino)thiazol-4-yl)-5,6-dihydro-[1,2,4]triazolo[4,3-a]pyrazin-7(8H)-yl)(4-(thiophen-2-yl)phenyl)methanone] was under 500 nM; that for `O=C(c1ccc(F)cc1)N1CCn2c(nnc2-c2nc(-c3ccccc3)ns2)C1` [Compound 212, (4-fluorophenyl)(3-(3-phenyl-1,2,4-thiadiazol-5-yl)-5,6-dihydro-[1,2,4]triazolo[4,3-a]pyrazin-7(8H)-yl)methanone] was under 500 nM.
Under `O=C(c1ccc(-c2ccccc2)cn1)N1CCn2c(nnc2-c2ccc3ccccc3n2)C1` [Compound 90, (5-phenylpyridin-2-yl)(3-(quinolin-2-yl)-5,6-dihydro-[1,2,4]triazolo[4,3-a]pyrazin-7(8H)-yl)methanone] stands under 500 nM; under `Cc1sccc1-c1ccc(C(=O)N2CCn3c(-c4csc(-c5ccc(F)cc5)n4)nnc3[C@H]2C)cc1` [Compound 234, (R)-(3-(2-(4-fluorophenyl)thiazol-4-yl)-8-methyl-5,6-dihydro-[1,2,4]triazolo[4,3-a]pyrazin-7(8H)-yl)(4-(2-methylthiophen-3-yl)phenyl)methanone], under 500 nM; under `O=C(c1ccc(-c2ccc(F)cc2)cc1)N1CCn2c(nnc2-c2csc(-c3ccccc3F)n2)C1` [Compound 183, (4′-fluoro-[1,1′-biphenyl]-4-yl)(3-(2-(2-fluorophenyl)thiazol-4-yl)-5,6-dihydro-[1,2,4]triazolo[4,3-a]pyrazin-7(8H)-yl)methanone], under 500 nM.
On to `O=C(c1ccc(-c2cccs2)cc1)N1CCn2c(nnc2-c2csc(-c3ccc4ccccc4n3)n2)C1` [Compound 219, (3-(2-(quinolin-2-yl)thiazol-4-yl)-5,6-dihydro-[1,2,4]triazolo[4,3-a]pyrazin-7(8H)-yl)(4-(thiophen-2-yl)phenyl)methanone], for which the Ki is under 500 nM.
Under `O=C(c1ccc(Cl)c(Cl)c1)N1CCn2c(nnc2-c2ccccn2)C1` [Compound 5, (3,4-dichlorophenyl)(3-(pyridin-2-yl)-5,6-dihydro-[1,2,4]triazolo[4,3-a]pyrazin-7(8H)-yl)methanone] stands 1000 to 5000 nM; under `COc1ccccc1-c1nc(-c2nnc3n2CCN(C(=O)c2ccc(F)cc2)C3)cs1` [Compound 201, (4-fluorophenyl)(3-(2-(2-methoxyphenyl)thiazol-4-yl)-5,6-dihydro-[1,2,4]triazolo[4,3-a]pyrazin-7(8H)-yl)methanone], 1000 to 5000 nM; under `O=C(c1ccc(-c2ccccc2)cc1)N1CCn2c(nnc2-c2nc(-c3ccccc3)no2)C1` [Compound 217, [1,1′-biphenyl]-4-yl(3-(3-phenyl-1,2,4-oxadiazol-5-yl)-5,6-dihydro-[1,2,4]triazolo[4,3-a]pyrazin-7(8H)-yl)methanone], under 500 nM.
As to `O=C(c1ccc(F)cc1)N1CCn2c(nnc2-c2csc(-c3ccccc3)n2)C1` [Compound 8, (4-fluorophenyl)(3-(2-phenylthiazol-4-yl)-5,6-dihydro-[1,2,4]triazolo[4,3-a]pyrazin-7(8H)-yl)methanone], the Ki was under 500 nM.
For the compound `O=C(c1ccc(F)cc1)N1CCn2c(nnc2-c2csc(N3CCC(F)(F)CC3)n2)C1` [Compound 258, (3-(2-(4,4-difluoropiperidin-1-yl)thiazol-4-yl)-5,6-dihydro-[1,2,4]triazolo[4,3-a]pyrazin-7(8H)-yl)(4-fluorophenyl)methanone], the Ki is under 500 nM.
Under `O=C(c1ccc(-c2cccs2)cc1)N1CCn2c(nnc2-c2ccccn2)C1` [Compound 21, (3-(pyridin-2-yl)-5,6-dihydro-[1,2,4]triazolo[4,3-a]pyrazin-7(8H)-yl)(4-(thiophen-2-yl)phenyl)methanone] stands under 500 nM.
